The assay concerns the target T1, human 5-HT6 receptor (Homo sapiens, UniProt P50406).
T1 construct: host or cells: CHO-K1 cells, stably transfected; membranes prepared in house
In words: Human 5-HT6 Receptor Binding Assay ([3H]LSD displacement, scintillation beads). The settings on record: membranes of CHO-K1 cells with recombinant human 5-HT6, 4 nM [3H]LSD; Table 1, class symbols; read-out: h5-HT6 (Ki).

Usually Ki stands for the dissociation constant of the complex between target and ligand, obtained from inhibition or displacement.

Molecules are shown by their SMILES. Where a name gives a salt, the structure may show the parent alone.

T1 sequence (P50406 whole entry): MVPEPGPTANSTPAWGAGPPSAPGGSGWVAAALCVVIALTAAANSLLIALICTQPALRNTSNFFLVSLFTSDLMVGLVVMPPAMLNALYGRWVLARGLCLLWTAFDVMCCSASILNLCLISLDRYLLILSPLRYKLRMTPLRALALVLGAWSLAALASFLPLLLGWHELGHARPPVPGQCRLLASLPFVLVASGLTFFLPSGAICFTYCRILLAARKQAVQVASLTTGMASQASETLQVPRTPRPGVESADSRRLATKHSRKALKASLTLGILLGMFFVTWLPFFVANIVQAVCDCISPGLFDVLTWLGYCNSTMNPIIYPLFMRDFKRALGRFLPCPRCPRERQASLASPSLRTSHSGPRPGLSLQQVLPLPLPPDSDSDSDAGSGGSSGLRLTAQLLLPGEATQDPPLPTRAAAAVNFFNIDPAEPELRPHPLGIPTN

For `CC1OCCC12NCCc1c2oc2cc(S(=O)(=O)c3cccc(F)c3)ccc12` (single isomer, unassigned) [Example 58, 7-[(3-Fluorophenyl)sulfonyl]-2′-methyl-3,4,4′,5′-tetrahydro-2H-spiro[1-benzofuro[2,3-c]pyridine-1,3′-furan]], the inhibition constant Ki was less than 500 nM.
`CC1NCCc2c1oc1cc(S(=O)(=O)c3ccccc3)ccc21` (centres unmarked) [Example 235]: the inhibition constant (Ki) is less than 500 nM.
On to `O=S(=O)(Oc1ccc2c(c1)C1CCNCC1O2)c1ccc(F)c(Cl)c1` (centres unmarked) [Example 723], for which the Ki is 500 to 1000 nM.
The result for `CC12CCNCC1Oc1ccc(OS(=O)(=O)c3cc4ccccc4o3)cc12` (centres unmarked) [Example 765] reads 500 to 1000 nM; that for `O=S(=O)(c1ccc2c(c1)OCCO2)c1cccc2c1OC1CNCCC21` (centres unmarked) [Example 185], less than 500 nM.
In the case of `O=S(=O)(c1ccc2c(c1)OC1CNCCC21)c1cc(F)ccc1F` (centres unmarked) [Example 143], the Ki was less than 500 nM.
Turning to `O=S(=O)(c1cccc(OC2CCOCC2)c1)c1ccc2c(c1)OC1CNCCC21` (centres unmarked) [Example 571], the inhibitory constant (Ki) is less than 500 nM.
The result for `CC1OCCC12NCCc1c2oc2cc(S(=O)(=O)c3cccc(F)c3)ccc12` (single isomer, unassigned) [Example 57, 7-[(3-Fluorophenyl)sulfonyl]-2′-methyl-3,4,4′,5′-tetrahydro-2H-spiro[1-benzofuro[2,3-c]pyridine-1,3′-furan]] reads less than 500 nM; that for `Cc1ccc(S(=O)(=O)Oc2ccc3c(c2)OC2CNCCC32)cc1Cl` (centres unmarked) [Example 659], greater than 1000 nM; that for `COCCCOc1cc(OC(C)C)cc(S(=O)(=O)c2ccc3c(c2)OC2CNCCC32)c1` (centres unmarked) [Example 588], less than 500 nM.
The result for `[O-][S+](c1ccc2c3c(oc2c1)CNCC3)c1cc(Cl)ccc1Cl` (centres unmarked) [Example 214] reads less than 500 nM; that for `[O-][S+](c1ccc2oc3c(c2c1)CCNC3)c1cc(F)cc(F)c1F` (centres unmarked) [Example 443], greater than 1000 nM; that for `O=S(=O)(Oc1ccc2c(c1)OC1CNCCC21)c1ccc2c(c1)OCCO2` (centres unmarked) [Example 668], less than 500 nM.
For `O=S(=O)(c1ccc2c3c(oc2c1)CNCC3)c1cccc(F)c1F` [Example 432], the Ki is less than 500 nM.
To `COc1cccc(S(=O)(=O)c2ccc3c(c2)OC2CNCCC32C)c1` (racemic) [Example 4, 7-[(3-methoxyphenyl)sulfonyl]-4a-methyl-1,2,3,4,4a,9a-hexahydro[1]benzofuro[2,3-c]pyridine] belongs less than 500 nM; to `CC(C)Oc1cccc(S(=O)(=O)c2ccc3c(c2)OC2CNCCC32C)c1` (single isomer, unassigned) [Example 20, 4a-methyl-7-{[3-(propan-2-yloxy)phenyl]sulfonyl}-1,2,3,4,4a,9a-hexahydro[1]benzofuro[2,3-c]pyridine], less than 500 nM.
In the case of `O=S(=O)(c1cc[n+]([O-])cc1)c1ccc2oc3c(c2c1)CCNC3` [Example 351], the Ki was greater than 1000 nM.
To `O=S(=O)(c1cccc(F)c1)c1ccc2oc3c(c2c1)CCNC3` [Example 244, 6-[(3-fluorophenyl)sulfonyl]-1,2,3,4-tetrahydro[1]benzofuro[2,3-c]pyridine] belongs less than 500 nM; to `Cc1cccc(S(=O)(=O)c2ccc3c4c(oc3c2)CNCC4)c1` [Example 221], less than 500 nM; to `O=S(=O)(Cc1ccccc1)Nc1ccc2c(c1)C1CCNCC1O2` (centres unmarked) [Example 831], greater than 1000 nM.
To `[O-][S+](c1ccc2c(c1)OC1CNCCC21)c1cc(F)cc(F)c1F` (centres unmarked) [Example 385] belongs greater than 1000 nM; to `O=[N+]([O-])c1ccc(S(=O)(=O)c2ccc3c(c2)C2CCNCC2O3)cc1` (centres unmarked) [Example 177], greater than 1000 nM.
To `O=S(=O)(c1cc(F)cc(F)c1)c1ccc2c3c([nH]c2c1)C1(CCCOC1)NCC3` (centres unmarked) [Example 312] belongs less than 500 nM; to `Cc1ccc(S(=O)(=O)c2ccc3c4c(oc3c2)CNCC4)cc1` [Example 204], less than 500 nM.
For `CC(=O)N(C)CC1NCCc2c1oc1cc(S(=O)(=O)c3cccc(Cl)c3)ccc21` (racemic) [Example 541, N-({7-[(3-chlorophenyl)sulfonyl]-1,2,3,4-tetrahydro[1]benzofuro[2,3-c]pyridin-1-yl}methyl)-N-methylacetamide], the Ki is less than 500 nM.
For `O=S(=O)(Oc1ccc2c(c1)C1CCNCC1O2)c1cc(Cl)cc(Cl)c1` (centres unmarked) [Example 739], the inhibition constant Ki is less than 500 nM.
As to `CC(C)COc1cc(F)cc(S(=O)(=O)c2ccc3c(c2)OC2CNCCC32)c1` (centres unmarked) [Example 402], the inhibitory constant (Ki) was less than 500 nM.
To `COc1ccc(S(=O)(=O)c2ccc3c4c(oc3c2)CNCC4)cc1F` [Example 194] belongs less than 500 nM; to `O=S(=O)(c1ccncc1)c1ccc2c3c(oc2c1)CNCC3` [Example 344], 500 to 1000 nM; to `O=S(=O)(c1ccc2c(c1)OC1CNCCC21)c1ccccc1Cl` (centres unmarked) [Example 113], less than 500 nM.
The result for `CNC(=O)c1cccc(S(=O)(=O)c2ccc3c4c(oc3c2)CNCC4)c1` [Example 478] reads 500 to 1000 nM; that for `O=S(=O)(c1cccc(Cl)c1)c1ccc2c3c(oc2c1)CN(CC(F)(F)F)CC3` [Example 604], less than 500 nM.
To `COc1ccccc1S(=O)(=O)c1ccc2c(c1)OC1CNCCC21C` (racemic) [Example 3, 7-[(2-methoxyphenyl)sulfonyl]-4a-methyl-1,2,3,4,4a,9a-hexahydro[1]benzofuro[2,3-c]pyridine] belongs less than 500 nM; to `CN(C)C(=O)c1cccc(S(=O)(=O)c2ccc3c(c2)OC2CNCCC32C)c1` (centres unmarked) [Example 425], greater than 1000 nM.
Turning to `Cc1cc(S(=O)(=O)c2ccc3c(c2)OC2CNCCC32)ccc1F` (centres unmarked) [Example 137], the inhibition constant (Ki) is less than 500 nM.
To `CC(C)COc1cc(F)cc(S(=O)(=O)c2ccc3c(c2)OC2CNCCC32C)c1` (centres unmarked) [Example 424] belongs less than 500 nM; to `CC(C)Oc1cc(OC(CO)CCl)cc(S(=O)(=O)c2ccc3c(c2)OC2CNCCC32)c1` (centres unmarked) [Example 589], less than 500 nM.
On to `O=[N+]([O-])c1ccc(S(=O)(=O)Oc2ccc3c(c2)OC2CNCCC32)cc1` (centres unmarked) [Example 688], for which the inhibition constant (Ki) lay within 500 to 1000 nM.
The result for `CC12CCNCC1Oc1ccc(OS(=O)(=O)c3cccc(C(F)(F)F)c3)cc12` (centres unmarked) [Example 780] reads greater than 1000 nM; that for `CC(C)Oc1cc(F)cc(S(=O)(=O)c2ccc3c(c2)OC2CNCCC32)c1` (single isomer, unassigned) [Example 364, 7-(3-Fluoro-5-isopropoxy-benzenesulfonyl)-1,2,3,4,4a,9a-hexahydro-benzo[4,5]furo[2,3-c]pyridine hydrochloride], less than 500 nM; that for `O=[N+]([O-])c1ccc(S(=O)(=O)c2ccc3oc4c(c3c2)CCNC4)cc1` [Example 253], greater than 1000 nM.
To `O=S(=O)(Oc1ccc2c(c1)OC1CNCCC21)c1c(Cl)nc2sccn12` (centres unmarked) [Example 638] belongs less than 500 nM; to `O=S(=O)(Oc1ccc2c(c1)OC1CNCCC21)c1c(Cl)cccc1Cl` (centres unmarked) [Example 679], less than 500 nM; to `O=S(=O)(Oc1ccc2c(c1)C1CCNCC1O2)c1csc2ccccc12` (centres unmarked) [Example 725], less than 500 nM.
To `COc1cc(F)cc(S(=O)(=O)c2ccc3c(c2)OC2CNCCC32)c1` (centres unmarked) [Example 407] belongs less than 500 nM; to `COCC1NCCc2c1oc1ccc(S(=O)(=O)c3cccc(F)c3)cc21` (centres unmarked) [Example 515], greater than 1000 nM; to `O=S(=O)(c1ccccc1)c1ccc2c(c1)OC1CN(C3CCCCC3)CCC21` (centres unmarked) [Example 610], 500 to 1000 nM.
Turning to `O=S(=O)(c1ccc(Cl)c(Cl)c1)c1ccc2c(c1)C1CCNCC1O2` (centres unmarked) [Example 172], the Ki was less than 500 nM.
The result for `Cc1cc(COc2cccc(S(=O)(=O)c3ccc4c(c3)OC3CNCCC43)c2)no1` (centres unmarked) [Example 565] reads less than 500 nM; that for `COc1ccc(OC)c(S(=O)(=O)Oc2ccc3c(c2)OC2CNCCC32)c1` (centres unmarked) [Example 670], less than 500 nM; that for `CC(C)Oc1cc(F)cc(S(=O)(=O)c2ccc3c(c2)OC2CNCCC32)c1` (centres unmarked) [Example 417], less than 500 nM.
The result for `O=S(=O)(c1cccc(Cl)c1)c1ccc2c(c1)OC1CNCCC21` (centres unmarked) [Example 112] reads less than 500 nM; that for `N#CCCCCOc1cccc(S(=O)(=O)c2ccc3c(c2)OC2CNCCC32)c1` (centres unmarked) [Example 574], less than 500 nM; that for `O=S(=O)(c1cccc(C(F)(F)F)c1)c1ccc2c3c(oc2c1)C1(CCOC1)NCC3` (centres unmarked) [Example 307], less than 500 nM.
To `CCC1(C)NCCc2c1oc1cc(S(=O)(=O)c3cccc(F)c3)ccc21` (racemic) [Example 27, 1-ethyl-7-[(3-fluorophenyl)sulfonyl]-1-methyl-1,2,3,4-tetrahydro[1]benzofuro[2,3-c]pyridine] belongs less than 500 nM; to `O=S(=O)(c1ccc2c(c1)C1CCNCC1O2)c1ccccc1Cl` (centres unmarked) [Example 169], 500 to 1000 nM; to `O=S(=O)(NC1Cc2ccccc2C1)c1ccc2c(c1)C1CCNCC1O2` (centres unmarked) [Example 857], greater than 1000 nM.
On to `CC(C)C1NCCc2c1oc1cc(S(=O)(=O)c3cccc(F)c3)ccc21` (centres unmarked) [Example 495], for which the Ki is less than 500 nM.
With `O=S(=O)(c1cccc(OCC2CCOCC2)c1)c1ccc2c(c1)OC1CNCCC21` (single isomer, unassigned) [Example 548, 7-{[3-(Tetrahydro-2H-pyran-4-ylmethoxy)phenyl]sulfonyl}-1,2,3,4,4a,9a-hexahydro[1]benzofuro[2,3-c]pyridine], the Ki was less than 500 nM.
To `O=S(=O)(Oc1ccc2c(c1)OC1CNCCC21)c1ccc(-n2cccn2)cc1` (centres unmarked) [Example 671] belongs less than 500 nM; to `O=S(=O)(Oc1ccc2c(c1)OC1CNCCC21)c1ccccn1` (centres unmarked) [Example 689], greater than 1000 nM; to `O=S(=O)(c1ccc2c(c1)C1CCNCC1O2)N1CCc2ccccc21` (centres unmarked) [Example 838], 500 to 1000 nM.
To `COc1cncc(S(=O)(=O)c2ccc3c4c(oc3c2)C2(CCOC2)NCC4(C)C)c1` (centres unmarked) [Example 454] belongs less than 500 nM.
`O=S(=O)(c1cccc(F)c1)c1ccc2oc3c(c2c1)CCNC3C1CC1` (centres unmarked) [Example 517]: the Ki was less than 500 nM.
Take `CC(C)c1ccc(S(=O)(=O)Oc2ccc3c(c2)OC2CNCCC32)cc1` (centres unmarked) [Example 657]: the inhibition constant Ki was less than 500 nM.

(Values after patent US8765779B2, “Tricyclic derivatives and their pharmaceutical use and compositions” (Cephalon, Inc., priority 2009, dated 2014).)
